From PMC11604427 (Frontiers in Pharmacology, 2024)

Experiments:
[1] = target: T1, Human recombinant PKMYT1 enzyme (Homo sapiens, UniProt Q99640); test: ADP-GLO enzyme inhibition assay; format: biochemical
T1 construct: purchased Abcam
T1 sequence (Q99640 1-499): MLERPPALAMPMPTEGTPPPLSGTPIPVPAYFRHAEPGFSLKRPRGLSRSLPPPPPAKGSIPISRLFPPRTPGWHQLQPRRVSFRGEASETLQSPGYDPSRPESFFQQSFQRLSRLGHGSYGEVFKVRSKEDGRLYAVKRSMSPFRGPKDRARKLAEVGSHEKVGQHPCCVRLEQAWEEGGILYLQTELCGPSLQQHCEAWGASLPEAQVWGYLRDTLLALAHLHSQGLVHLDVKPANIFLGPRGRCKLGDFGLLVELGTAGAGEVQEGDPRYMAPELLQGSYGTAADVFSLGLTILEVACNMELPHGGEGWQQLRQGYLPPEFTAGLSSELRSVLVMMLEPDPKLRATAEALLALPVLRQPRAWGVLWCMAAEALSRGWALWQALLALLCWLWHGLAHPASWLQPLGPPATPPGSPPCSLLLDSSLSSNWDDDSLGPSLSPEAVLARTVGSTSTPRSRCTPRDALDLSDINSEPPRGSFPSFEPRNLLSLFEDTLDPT
Protocol: The ADP-GLO™ kinase assay kit, purchased from Promega Corporation (Madison, WI, United States), included the ADP-GLO reagent, the kinase assay reagent, and ultra-pure ATP and ADP. PKMYT1 enzyme was dissolved in 5 μL of freshly prepared enzyme assay buffer containing 70 mM Hepes, 3 mM MgCl2, 3 mM MnCl2, 50 μg/mL PEG20000, 3 μM sodium orthovanadate, 1.2 mM dithiothreitol, and then injected into 384-well plates. […] The enzymatic reaction was initiated by adding 5 μL of ATP, followed by a 60-min incubation at 30°C. Subsequently, 15 μL of ADP-GLO reagent was added, and the incubation was continued for an additional 40 min at room temperature. Then, 30 μL of kinase detection reagent was introduced, and the samples were incubated for a final 30 min. Luminescence measurements were taken using an Envision plate reader (PerkinElmer). The IC50 value of each tested compound was calculated by GraphPad Prism software.

HepG2 cells [2] = test: Western blot of apoptosis markers; format: cell-based, human
Protocol: To evaluate the protein levels of apoptosis-associated markers, we performed Western blot analysis on cell extracts as previously reported ([Hao et al., 2018]). Briefly, equal amounts of protein were subjected to SDS-PAGE and then transferred onto a polyvinylidene fluoride (PVDF) membrane. The membrane was incubated in a blocking solution consisting of 5% non-fat dry milk in Tris-buffered saline with Tween-20 (TBS-T) for 3 h at room temperature. Subsequently, the membrane was probed with primary antibodies specific to cleaved PARP and cleaved caspase-3 overnight at 4°C. After washing, the membrane was incubated with horseradish peroxidase-conjugated secondary antibodies for 1 h at room temperature. Immunoreactive bands were visualized using a chemiluminescent substrate (ECL, Pierce Technology). The relative expression levels of cleaved PARP and cleaved caspase-3 were quantified.

HepG2 cells [3] = test: RT-PCR analysis; format: cell-based, human
Protocol: Total RNA was extracted from cells using Trizol reagent (Invitrogen, Carlsbad, CA) and reverse transcribed into cDNA with the PrimeScript RT reagent kit (Takara Bio, Otsu, Japan). RT-PCR was performed on the Mx3000P system (Agilent Technologies, Santa Clara, CA) with TB Green Premix Ex Taq II (Takara Bio). Relative gene expression was determined by the 2^−ΔΔCt method.

ABL2 = target: T2, ABL2 (Homo sapiens, UniProt P42684); test: SelectScreen kinase selectivity assay; format: biochemical
T2 construct: purchased Thermo Fisher Scientific (SelectScreen service)
Protocol: (§1) The kinase selectivity analysis of PKHD-5 was performed using the SelectScreen kinase analysis service provided by Thermo Fisher Scientific. The experiment initially involved the preparation of a series of inhibitor solutions at varying concentrations, which were then reacted with various kinase targets under standardized conditions to calculate the percentage inhibition for each test solution. Ultimately, the IC50 values were calculated based on the concentration-inhibition curves by fitting a four-parameter logistic curve, thereby assessing the potency and selectivity of the inhibitors. The analysis results are detailed in Supplementary Table S1.

AXL = target: T3, AXL (Homo sapiens, UniProt P30530); test: SelectScreen kinase selectivity assay; format: biochemical
T3 construct: purchased Thermo Fisher Scientific (SelectScreen service)
T3 sequence (P30530 26-894): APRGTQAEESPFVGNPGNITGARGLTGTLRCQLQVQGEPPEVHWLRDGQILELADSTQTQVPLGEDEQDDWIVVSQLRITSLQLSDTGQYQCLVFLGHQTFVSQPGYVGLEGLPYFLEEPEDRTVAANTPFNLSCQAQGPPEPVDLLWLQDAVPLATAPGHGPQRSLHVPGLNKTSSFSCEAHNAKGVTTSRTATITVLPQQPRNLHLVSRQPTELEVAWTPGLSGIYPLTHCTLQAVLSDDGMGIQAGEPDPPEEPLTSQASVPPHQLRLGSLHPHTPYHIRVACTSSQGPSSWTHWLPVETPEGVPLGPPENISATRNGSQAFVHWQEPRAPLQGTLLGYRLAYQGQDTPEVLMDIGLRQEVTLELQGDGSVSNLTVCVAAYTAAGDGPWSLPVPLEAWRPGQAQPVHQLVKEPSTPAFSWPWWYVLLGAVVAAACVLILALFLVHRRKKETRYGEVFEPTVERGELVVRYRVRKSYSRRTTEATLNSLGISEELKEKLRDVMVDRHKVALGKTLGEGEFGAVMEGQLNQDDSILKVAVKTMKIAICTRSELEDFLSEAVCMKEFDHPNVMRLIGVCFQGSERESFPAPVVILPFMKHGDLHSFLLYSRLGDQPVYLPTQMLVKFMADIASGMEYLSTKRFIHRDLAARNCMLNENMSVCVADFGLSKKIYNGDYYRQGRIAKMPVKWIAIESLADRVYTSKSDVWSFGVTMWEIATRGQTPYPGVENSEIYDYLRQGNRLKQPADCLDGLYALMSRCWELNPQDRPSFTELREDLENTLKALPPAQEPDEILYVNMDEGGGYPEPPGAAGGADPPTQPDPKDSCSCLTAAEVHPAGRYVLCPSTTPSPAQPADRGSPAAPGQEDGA
Protocol: as §1

CSF1R = target: T4, CSF1R (Homo sapiens, UniProt P07333); test: SelectScreen kinase selectivity assay; format: biochemical
T4 construct: purchased Thermo Fisher Scientific (SelectScreen service)
T4 sequence (P07333 20-972): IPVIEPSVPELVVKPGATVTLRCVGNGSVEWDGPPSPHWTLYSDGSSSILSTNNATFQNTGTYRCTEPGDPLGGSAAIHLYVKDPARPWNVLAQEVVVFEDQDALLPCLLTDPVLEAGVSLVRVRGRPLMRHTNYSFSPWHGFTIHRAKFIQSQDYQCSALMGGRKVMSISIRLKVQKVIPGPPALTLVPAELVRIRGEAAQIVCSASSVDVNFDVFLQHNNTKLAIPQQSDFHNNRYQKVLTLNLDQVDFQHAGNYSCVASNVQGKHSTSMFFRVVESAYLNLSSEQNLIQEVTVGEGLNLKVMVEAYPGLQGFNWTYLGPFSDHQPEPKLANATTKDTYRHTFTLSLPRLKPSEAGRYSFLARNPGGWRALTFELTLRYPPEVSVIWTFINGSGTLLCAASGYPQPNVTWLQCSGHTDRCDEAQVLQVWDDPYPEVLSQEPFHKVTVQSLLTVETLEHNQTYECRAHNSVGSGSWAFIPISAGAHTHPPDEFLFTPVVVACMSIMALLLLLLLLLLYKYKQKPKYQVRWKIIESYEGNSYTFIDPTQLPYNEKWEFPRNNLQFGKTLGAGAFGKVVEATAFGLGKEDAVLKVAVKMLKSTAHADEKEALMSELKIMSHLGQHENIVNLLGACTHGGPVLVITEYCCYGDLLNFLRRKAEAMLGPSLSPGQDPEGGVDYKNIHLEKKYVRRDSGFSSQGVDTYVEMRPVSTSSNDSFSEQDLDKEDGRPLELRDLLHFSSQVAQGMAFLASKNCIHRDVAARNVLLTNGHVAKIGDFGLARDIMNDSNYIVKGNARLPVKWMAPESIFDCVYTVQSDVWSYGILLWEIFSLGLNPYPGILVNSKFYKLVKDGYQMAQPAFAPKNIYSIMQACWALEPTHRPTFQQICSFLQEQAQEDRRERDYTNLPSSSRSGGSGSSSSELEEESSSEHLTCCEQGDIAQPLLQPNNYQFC
Protocol: as §1

EPHA5 = target: T5, EPHA5 (Homo sapiens, UniProt P54756); test: SelectScreen kinase selectivity assay; format: biochemical
T5 construct: purchased Thermo Fisher Scientific (SelectScreen service)
Protocol: as §1

EPHA7 = target: T6, EPHA7 (Homo sapiens, UniProt Q15375); test: SelectScreen kinase selectivity assay; format: biochemical
T6 construct: purchased Thermo Fisher Scientific (SelectScreen service)
Protocol: as §1

EPHA8 = target: T7, EPHA8 (Homo sapiens, UniProt P29322); test: SelectScreen kinase selectivity assay; format: biochemical
T7 construct: purchased Thermo Fisher Scientific (SelectScreen service)
Protocol: as §1

FGFR1 = target: T8, FGFR1 (Homo sapiens, UniProt P11362); test: SelectScreen kinase selectivity assay; format: biochemical
T8 construct: purchased Thermo Fisher Scientific (SelectScreen service)
Protocol: as §1

FGFR2 = target: T9, FGFR2 (Homo sapiens, UniProt P21802); test: SelectScreen kinase selectivity assay; format: biochemical
T9 construct: purchased Thermo Fisher Scientific (SelectScreen service)
T9 sequence (P21802 22-821): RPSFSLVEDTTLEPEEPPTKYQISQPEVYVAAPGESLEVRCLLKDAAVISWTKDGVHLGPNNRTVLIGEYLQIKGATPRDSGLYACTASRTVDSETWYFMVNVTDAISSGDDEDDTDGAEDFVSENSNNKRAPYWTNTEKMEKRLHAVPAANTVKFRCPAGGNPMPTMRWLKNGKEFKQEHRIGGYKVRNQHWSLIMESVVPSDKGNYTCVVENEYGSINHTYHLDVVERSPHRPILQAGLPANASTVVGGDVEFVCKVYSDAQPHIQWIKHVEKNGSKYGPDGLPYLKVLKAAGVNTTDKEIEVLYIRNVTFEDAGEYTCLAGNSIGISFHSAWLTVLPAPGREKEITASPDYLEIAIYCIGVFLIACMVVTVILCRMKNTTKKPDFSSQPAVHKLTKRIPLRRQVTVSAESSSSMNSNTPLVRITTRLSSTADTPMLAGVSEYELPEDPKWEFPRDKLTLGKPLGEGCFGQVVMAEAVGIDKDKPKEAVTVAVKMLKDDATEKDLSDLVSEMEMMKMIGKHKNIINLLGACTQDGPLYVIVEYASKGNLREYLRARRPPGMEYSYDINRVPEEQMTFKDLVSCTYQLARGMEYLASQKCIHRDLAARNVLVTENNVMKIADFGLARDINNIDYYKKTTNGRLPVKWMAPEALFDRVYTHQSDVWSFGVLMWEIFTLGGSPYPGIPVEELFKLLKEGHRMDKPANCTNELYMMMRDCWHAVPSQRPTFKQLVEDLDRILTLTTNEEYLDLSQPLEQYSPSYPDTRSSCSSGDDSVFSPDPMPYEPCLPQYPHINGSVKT
Protocol: as §1

FGFR4 = target: T10, FGFR4 (Homo sapiens, UniProt P22455); test: SelectScreen kinase selectivity assay; format: biochemical
T10 construct: purchased Thermo Fisher Scientific (SelectScreen service)
Protocol: as §1

FYN = target: T11, FYN (Homo sapiens, UniProt P06241); test: SelectScreen kinase selectivity assay; format: biochemical
T11 construct: purchased Thermo Fisher Scientific (SelectScreen service)
T11 sequence (P06241 whole entry): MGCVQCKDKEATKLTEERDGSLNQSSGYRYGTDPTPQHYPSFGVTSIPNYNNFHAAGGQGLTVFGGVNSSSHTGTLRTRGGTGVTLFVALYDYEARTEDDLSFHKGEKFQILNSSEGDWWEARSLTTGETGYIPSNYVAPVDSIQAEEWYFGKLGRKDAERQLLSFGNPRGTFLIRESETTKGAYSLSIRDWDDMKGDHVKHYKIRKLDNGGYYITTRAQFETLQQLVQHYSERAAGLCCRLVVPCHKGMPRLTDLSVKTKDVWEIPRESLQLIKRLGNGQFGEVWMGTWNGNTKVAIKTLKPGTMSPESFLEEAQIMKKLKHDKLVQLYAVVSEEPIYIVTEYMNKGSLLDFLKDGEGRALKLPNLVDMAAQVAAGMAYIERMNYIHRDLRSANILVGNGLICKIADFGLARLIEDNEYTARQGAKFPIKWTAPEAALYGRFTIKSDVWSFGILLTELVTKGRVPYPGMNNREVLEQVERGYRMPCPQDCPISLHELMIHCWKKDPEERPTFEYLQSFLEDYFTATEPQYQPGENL
Protocol: as §1

HCK = target: T12, HCK (Homo sapiens, UniProt P08631); test: SelectScreen kinase selectivity assay; format: biochemical
T12 construct: purchased Thermo Fisher Scientific (SelectScreen service)
T12 sequence (P08631 whole entry): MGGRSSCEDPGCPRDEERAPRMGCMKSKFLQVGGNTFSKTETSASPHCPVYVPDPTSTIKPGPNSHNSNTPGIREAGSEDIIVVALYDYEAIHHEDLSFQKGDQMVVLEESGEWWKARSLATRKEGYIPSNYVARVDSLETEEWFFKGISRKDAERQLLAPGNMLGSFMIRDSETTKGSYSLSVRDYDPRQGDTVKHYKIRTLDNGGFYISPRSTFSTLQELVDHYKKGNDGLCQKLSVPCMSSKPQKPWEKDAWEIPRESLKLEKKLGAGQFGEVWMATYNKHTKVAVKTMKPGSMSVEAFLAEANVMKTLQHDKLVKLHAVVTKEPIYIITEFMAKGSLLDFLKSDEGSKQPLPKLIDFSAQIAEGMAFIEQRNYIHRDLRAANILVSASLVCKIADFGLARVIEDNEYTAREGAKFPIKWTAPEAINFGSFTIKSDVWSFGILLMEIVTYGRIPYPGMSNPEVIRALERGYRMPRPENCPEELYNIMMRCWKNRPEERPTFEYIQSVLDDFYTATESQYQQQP
Protocol: as §1

IGF1R = target: T13, IGF1R (Homo sapiens, UniProt P08069); test: SelectScreen kinase selectivity assay; format: biochemical
T13 construct: purchased Thermo Fisher Scientific (SelectScreen service)
Protocol: as §1

INSRR = target: T14, INSRR (Homo sapiens, UniProt P14616); test: SelectScreen kinase selectivity assay; format: biochemical
T14 construct: purchased Thermo Fisher Scientific (SelectScreen service)
T14 sequence (P14616 27-1297): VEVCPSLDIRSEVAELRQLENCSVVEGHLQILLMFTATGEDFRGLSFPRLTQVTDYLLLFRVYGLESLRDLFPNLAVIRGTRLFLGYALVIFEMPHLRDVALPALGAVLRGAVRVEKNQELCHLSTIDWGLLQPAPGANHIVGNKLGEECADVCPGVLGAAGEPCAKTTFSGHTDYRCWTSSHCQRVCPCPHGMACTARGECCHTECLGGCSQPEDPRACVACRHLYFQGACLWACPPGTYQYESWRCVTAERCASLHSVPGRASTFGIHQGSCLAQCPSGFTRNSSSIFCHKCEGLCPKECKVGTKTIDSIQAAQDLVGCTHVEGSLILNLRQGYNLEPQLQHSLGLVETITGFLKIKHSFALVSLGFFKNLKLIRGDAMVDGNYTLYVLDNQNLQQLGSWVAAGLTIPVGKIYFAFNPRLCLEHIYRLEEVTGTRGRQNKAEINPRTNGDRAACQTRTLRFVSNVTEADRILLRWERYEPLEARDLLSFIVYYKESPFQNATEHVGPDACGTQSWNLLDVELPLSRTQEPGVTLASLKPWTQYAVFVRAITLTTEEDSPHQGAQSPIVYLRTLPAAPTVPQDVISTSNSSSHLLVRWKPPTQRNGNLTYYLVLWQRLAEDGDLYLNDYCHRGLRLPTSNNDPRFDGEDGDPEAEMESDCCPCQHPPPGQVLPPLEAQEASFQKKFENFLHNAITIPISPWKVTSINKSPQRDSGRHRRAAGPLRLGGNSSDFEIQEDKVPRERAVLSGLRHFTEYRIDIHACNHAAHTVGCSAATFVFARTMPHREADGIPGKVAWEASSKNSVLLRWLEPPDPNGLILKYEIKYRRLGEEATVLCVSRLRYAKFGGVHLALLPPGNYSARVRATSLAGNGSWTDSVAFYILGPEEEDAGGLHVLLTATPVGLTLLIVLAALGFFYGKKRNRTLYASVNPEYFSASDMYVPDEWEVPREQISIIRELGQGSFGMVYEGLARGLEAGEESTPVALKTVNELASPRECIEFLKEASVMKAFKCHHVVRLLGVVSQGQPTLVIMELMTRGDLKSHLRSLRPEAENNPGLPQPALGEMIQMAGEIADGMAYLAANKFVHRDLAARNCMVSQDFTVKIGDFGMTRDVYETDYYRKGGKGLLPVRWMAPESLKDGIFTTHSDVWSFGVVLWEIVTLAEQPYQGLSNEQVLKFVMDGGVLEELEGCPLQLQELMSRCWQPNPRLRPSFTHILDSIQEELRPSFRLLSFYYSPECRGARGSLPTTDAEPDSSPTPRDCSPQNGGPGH
Protocol: as §1

JAK2 = target: T15, JAK2 (Homo sapiens, UniProt O60674); test: SelectScreen kinase selectivity assay; format: biochemical
T15 construct: purchased Thermo Fisher Scientific (SelectScreen service)
Protocol: as §1

JAK3 = target: T16, JAK3 (Homo sapiens, UniProt P52333); test: SelectScreen kinase selectivity assay; format: biochemical
T16 construct: purchased Thermo Fisher Scientific (SelectScreen service)
Protocol: as §1

KDR = target: T17, KDR (Homo sapiens, UniProt P35968); test: SelectScreen kinase selectivity assay; format: biochemical
T17 construct: purchased Thermo Fisher Scientific (SelectScreen service)
Protocol: as §1

MUSK = target: T18, MUSK (Homo sapiens, UniProt O15146); test: SelectScreen kinase selectivity assay; format: biochemical
T18 construct: purchased Thermo Fisher Scientific (SelectScreen service)
Protocol: as §1

NTRK1 = target: T19, NTRK1 (Homo sapiens, UniProt P04629); test: SelectScreen kinase selectivity assay; format: biochemical
T19 construct: purchased Thermo Fisher Scientific (SelectScreen service)
Protocol: as §1

Cc1ccc(O)c(C)c1-n1c(N)c(C(N)=O)c2cc(CCCCCC(=O)NO)c(C)nc21 [PKHD-5]
IC50 ([1]; ADP-GLO method): 0.00315 ± 0.00021 µM | fold inhibition of PKMYT1 compared with the control compound 39 ([1]; ratio of IC50 values versus compound 39): 4.91 fold | levels of cleaved PARP (HepG2 cells [2]): increased levels | levels of cleaved caspase-3 (HepG2 cells [2]): increased levels | expression of histone H3 acetylation (HepG2 cells [3]): upregulated | expression of p21 (HepG2 cells [3]): upregulated | IC50 (ABL2): > 50 µM | IC50 (AXL): > 50 µM | IC50 (CSF1R): > 50 µM | IC50 (EPHA5): > 50 µM | IC50 (EPHA7): > 50 µM | IC50 (EPHA8): > 50 µM | IC50 (FGFR1): > 50 µM | IC50 (FGFR2): > 50 µM | IC50 (FGFR4): > 50 µM | IC50 (FYN): > 50 µM | IC50 (HCK): > 50 µM | IC50 (IGF1R): > 50 µM | IC50 (INSRR): > 50 µM | IC50 (JAK2): > 50 µM | IC50 (JAK3): > 50 µM | IC50 (KDR): > 50 µM | IC50 (MUSK): > 50 µM | IC50 (NTRK1): > 50 µM
